One assay has as its system Spodoptera littoralis. The experiment in a line: Insecticide test, Egyptian cotton leafworm larvae (L3). It is filed as in vivo. The settings on record: 120 h, after 5 days. On the procedure:
Spodoptera littoralis (Egyptian cotton leafworm) larvae in the L3 stage were introduced into Petri dishes filled with nutrient medium, and these dishes together with the larvae were sprayed with 2 ml of an aqueous suspension of wettable powder containing 250 ppm (Corresponding to 6000 l of water/ha). After the spray coating had dried on, the Petri dishes were sealed and stored for 5 days at 21° C. After 5 days, the compound of Example No. 28 had caused a mortality of the Spodoptera larvae of 100%.

For assay [1], the system named is whitefly (Trialeurodes vaporariorum). The experiment in a line: Insecticide test, whitefly on bean plants. It is filed as in vivo. The settings on record: 336 h, after 14 days. The source says:
Bean plants which were heavily populated with whitefly (Trialeurodes vaporariorum) were sprayed to the beginning of the run-off point using aqueous suspensions of concentrates of wettable powders (250 ppm active substance content). After the plants had been placed in the greenhouse, they were subjected to microscope checks after 14 days, resulting in a 100% mortality in the case of each preparation containing the active substances of Example Nos. 4, 5, 10, 19, 20, 24, 27, 28, 130 and 139.

The test system of assay [2] is tropical cattle ticks (Boophilus microplus). The experiment in a line: In vitro test on tropical cattle ticks, inhibition of oviposition. It is filed as in vivo. As to conditions: Rhipicephalus microplus, 336 h, immersion five minutes, two weeks after treatment. How it is done: In vitro test on tropical cattle ticks (Boophilus microplus) The following experimental set-up allowed the effectiveness of the compounds according to the invention against ticks to be confirmed.
To produce a suitable preparation of active substance, the active substances were dissolved to 10% strength (w/v) in a mixture composed of dimethylformamide (85 g), nonylphenolpolyglycol ether (3 g) and ethoxylated castor oil (7 g), and the resulting emulsion concentrates were diluted with water to a test concentration of 500 ppm.
Batches of ten females of the tropical tick Boophilus microplus which had sucked themselves full were immersed for five minutes in these active substance dilutions. The ticks were subsequently dried on paper filters and then attached, with their backs, to an adhesive film-in order to deposit eggs. The ticks were kept in an incubator at 28° C. at an atmospheric humidity of 90%.
As a control, the female ticks were immersed just in water. Two weeks after the treatment, the inhibition of oviposition was used to determine the effectiveness. 100% means that no ticks have deposited eggs, 0 that all ticks have deposited eggs.

The subject of assay [3] is eggs of Diabrotica undecimpunctata. Put plainly: Activity against freshly deposited eggs of southern corn rootworm. The settings on record: 120 h, after 5 days. It is filed as in vivo. On the procedure:
Freshly deposited eggs of Diabrotica undecimpunctata (southern corn rootworm) were sprayed, on paper filters, with in each case 2 ml of an aqueous suspension of wettable powders (active substance content 250 ppm) and were subsequently observed at room temperature. After 5 days, the eggs were examined for mortality.

Assay [4] concerns two-spotted spider mite (Tetranychus urticae). The experiment in a line: Acaricide test, two-spotted spider mite on bean plants. It is filed as in vivo. As to conditions: 168 h, after 7 days, read-out: mortality rate of the mites. The source says:
Bean plants (Phaseolus v.) which were heavily infested with the two-spotted spider mite (Tetranychus urticae, full population) were sprayed with the aqueous dilution of a concentrate of wettable powder, containing 250 ppm of the active substance in question. The mortality of the mites was checked after 7 days.

In assay [5] the test system is eggs of the large milkweed bug (Oncopeltus fasciatus). Put plainly: Ovicidal activity, eggs of large milkweed bug on paper filter disks. The settings on record: 168 h, after 7 days. It is filed as in vivo. On the procedure: Paper filter disks onto which eggs of the large milkweed bug (Oncopeltus fasciatus) have been placed are treated with in each case 0.5 ml of aqueous dilution of the test formulation. After the coating has dried on, the Petri dish is sealed, and the inside is kept at maximum atmospheric humidity. After the dishes have been kept at room temperature, the ovicidal activity was determined after 7 days.

A further assay relates to Erysiphe graminis. Put plainly: Fungicide test, Erysiphe graminis (powdery mildew) on barley plants. It is filed as in vivo, Erysiphe graminis f. sp. hordei. As to conditions: 500 mg of active substance/l spray mixture; applied 24 hours after inoculation; 10 days. On the procedure:
Barley plants in the 3-leaf stage were inoculated with large amounts of conidia of powdery mildew of barley (Erysiphe graminis f. sp. hordei) and placed in a greenhouse at 20° C. and a relative atmospheric humidity of 90 to 95%. 24 hours after the inoculation, the plants were wetted uniformly with the abovementioned compounds. After an incubation time of 10 days, the plants were examined for the occurrence of powdery mildew of barley. The disease level was determined in % of diseased leaf area based on untreated, 100% infected control plants.

The subject of the next assay is Pyrenophora teres. Put plainly: Fungicide test, Pyrenophora teres on barley plants. It is filed as in vivo. As to conditions: 500 mg of active substance/l spray mixture; approximately 1 week after inoculation. How it is done: Barley plants cv. "Igri" in the 2-leaf stage were wetted to runoff point with an aqueous suspension of the compounds according to the invention. […] The infected plants were subsequently grown on in the greenhouse at 25° C. at a relative atmospheric humidity of 80%. The disease level was evaluated approximately 1 week after inoculation. The disease level was determined in % of diseased leaf area in comparison with untreated, 100% infected control plants.

Another assay deals with Plasmopara viticola. Put plainly: Fungicide test, Plasmopara viticola on grapevine seedlings. It is filed as in vivo. As to conditions: 500 mg of active substance/l spray mixture; incubation 7 days. How it is done: Approximately 6 weeks after sowing, grapevine seedlings "Riesling/Ehrenfelder" were treated to runoff point using aqueous suspensions of the compounds according to the invention. After the spray coating had dried on, the plants were inoculated with a zoosporangia suspension of Plasmopara viticola and the dripping wet plants were placed for 4 to 5 hours into a controlled-environment cabinet at 23° C. at a relative atmospheric humidity of 80-90%.
After an incubation time of 7 days in the greenhouse, the plants were returned overnight into the controlled-environment cabinet to stimulate sporulation of the fungus. The disease was then evaluated. The disease level was expressed in % of diseased leaf area in comparison with the untreated, 100% infected control plants.

A further assay deals with Botrytis cinerea. The experiment in a line: Fungicide test, Botrytis cinerea on broad beans. It is filed as in vivo. As to conditions: 500 mg of active substance/l spray mixture; approximately 1 week after inoculation. On the procedure:
Broad beans cv. "Herz Freya" or "[…]" approximately 14 days old, were treated to runoff point with aqueous suspensions of the compounds according to the invention. After the spray coating had dried off, the plants were inoculated with a spore suspension (1.5 million spores/ml) of Botrytis cinerea. The plants were grown on in a controlled-environment cabinet at 20°-22° C. under relative atmospheric humidity of approximately 99%. […] The experiments were evaluated approximately 1 week after inoculation. The disease level of the plants was scored in percent relative to untreated, 100% infected control plants.

Assay [6] deals with tobacco hornworm (Manduca sexta). Put plainly: Oral application to larvae (L4) of tobacco hornworm. It is filed as in vivo. How it is done:
Active substances which were dissolved in acetone were applied orally to butterfly larvae (L4) of tobacco hornworm (Manduca sexta). After active substance of Example No. 3 or 8 (2×10^-4 g of a.i./animal) had been applied, a mortality of 100% was found after 48 hours.

A further assay deals with Leptosphaeria nodorum. Put plainly: Fungicide test, Leptosphaeria nodorum on wheat plants. It is filed as in vivo. As to conditions: 500 mg of active substance/l spray mixture. How it is done:
Wheat plants cv. "Jubilar" in the 2-leaf stage were wetted to runoff point using aqueous suspensions of the preparations according to the invention. […] The plants were grown on in the greenhouse at a relative atmospheric humidity of approximately 90% until the symptoms became visible. The disease level was determined in % of diseased leaf area in comparison with the untreated, 100% infected control plants.

The subject of another assay is Phytophthora infestans. It is filed as in vivo. The settings on record: 500 mg of active substance/l spray mixture; approximately 1 week after inoculation.

A word on the mortality: it is the share of the test organisms that died. Broadly, the inhibition is the change of the read-out against control, counted positive when it falls. Higher therefore signals strong suppression. `Fc1cccc2c(N[C@H]3CC[C@@H](c4ccccc4)CC3)ccnc12` [Compound 28]: the mortality at 250 ppm (with Spodoptera littoralis; in [1]) was 100% in each case. Also, the inhibition at 500 ppm in assay [2] is 100%.
Take `CCC(C)(C)[C@H]1CC[C@@H](Oc2ccnc3ccccc23)CC1` [Compound 14]: in assay [2], the inhibition at 500 ppm came out at 100%.
With `c1ccc([C@H]2CC[C@@H](Oc3ccnc4ccccc34)CC2)cc1` [Compound 27], the mortality at 250 ppm in assay [3], in [4], in assay [5] and in assay [1] was 100% in each case. Testing at 500 ppm in [2] gave an inhibition of 100%.
For `c1ccc([C@H]2CC[C@@H](Oc3ccnc4cccnc34)CC2)cc1` [Compound 139], the mortality at 250 ppm in assay [3], in assay [4], in assay [5] and in assay [1] was 100% in each case. For the same compound, the disease suppression entry in the assay on Erysiphe graminis and in the assay with Pyrenophora teres was “suppress disease completely” throughout.
In [5], `c1ccc([C@H]2CC[C@@H](Nc3ncnc4ncccc34)CC2)cc1` [Compound 280] registered a mortality at 250 ppm of 100%.
As to `CC(C)(C)[C@H]1CC[C@@H](Nc2ccnc3c(F)cccc23)CC1` [Compound 5], the mortality at 250 ppm in assay [1] was 100%.
For `CC(C)(C)[C@H]1CC[C@@H](Nc2ccnc3cc(Cl)ccc23)CC1` [Compound 7], the disease suppression entry in the assay on Plasmopara viticola and in the assay with Botrytis cinerea was “suppress disease completely” throughout.
For the compound `c1ccc2c(O[C@H]3CC[C@@H](C4CCCCC4)CC3)ccnc2c1` [Compound 24, 4-(4-Cyclohexylcyclohexyloxy)quinoline], the mortality at 250 ppm in [4] and in assay [1] was 100% each time.
Consider `CC(C)(C)C1CCC(Oc2ccnc3ccccc23)CC1` (stereo not drawn) [Compound 4], for which the mortality at 250 ppm in assay [3], in assay [4] and in assay [1] was 100% throughout.
As to `CC(C)(C)C1CCC(Nc2ccnc3ccccc23)CC1` (stereo not drawn) [Compound 3], the mortality at 0.2 mg in assay [6] (po, 48 h) was determined as 100%. For the same compound, the mortality at 250 ppm in assay [3] and in assay [5] was 100% in each case. Also, the disease suppression result in the assay on Plasmopara viticola and in the assay with Botrytis cinerea was “suppress disease completely” throughout.
The compound `c1ccc([C@H]2CC[C@@H](Nc3ccnc4ncccc34)CC2)cc1` [Compound 208] had a mortality at 250 ppm in assay [5] of 100%.
As to `CCCC[C@H]1CC[C@@H](Oc2ccnc3ccccc23)CC1` [Compound 10], the mortality at 250 ppm in [4], in assay [5] and in [1] was 100% in each case.
In the case of `c1ccc([C@H]2CC[C@H](Nc3ccnc4ccccc34)CC2)cc1` [Compound 26, 4-(4-Phenylcyclohexylamino)quinoline], the disease suppression entry in the assay on Plasmopara viticola and in the assay with Botrytis cinerea was “suppress disease completely” in each case.
Consider `CCC(C)(C)[C@H]1CC[C@@H](Nc2ccnc3cccnc23)CC1` [Compound 130], for which the mortality at 250 ppm in assay [3], in assay [4], in assay [5] and in assay [1] was 100% each time. The disease suppression result in the assay on Leptosphaeria nodorum and in the assay with Plasmopara viticola was “suppress disease completely” each time.
On to `CC(C)(C)CC(C)(C)C1CCC(Nc2ccnc3ccccc23)CC1` (stereo not drawn) [Compound 19], for which the mortality at 250 ppm in assay [4], in [5] and in assay [1] was 100% in each case. Also, the disease suppression result in the assay on Plasmopara viticola and in the assay on Botrytis cinerea was “suppress disease completely” each time.
In [6] (oral, 2×10^-4 g of a.i./animal, after 48 hours), `CC(C)(C)[C@H]1CC[C@@H](Nc2ccnc3cc(C(F)(F)F)ccc23)CC1` [Compound 8] came in with a mortality at 0.2 mg of 100%.
Consider `Cc1cc(N[C@H]2CC[C@@H](C(C)(C)CC(C)(C)C)CC2)c2ccccc2n1` [Compound 80], for which the disease suppression result with Botrytis cinerea is on record as “suppress disease completely”.
As to `CC(C)(C)CC(C)(C)[C@H]1CC[C@@H](Oc2ccnc3ccccc23)CC1` [Compound 20], the mortality at 250 ppm in assay [4] and in assay [1] was 100% each time. The same compound had an inhibition at 500 ppm in assay [2] of 100%.
For the compound `CCOc1ccc([C@H]2CC[C@@H](Nc3ccnc4ccccc34)CC2)cc1` [Compound 45], in assay [5], the mortality at 250 ppm stood at 100%. Besides, the disease suppression result in the assay on Botrytis cinerea and in the assay on Phytophthora infestans was “suppress disease completely” throughout.
Turning to `c1ccc2c(NC3CCC(C4CCCCC4)CC3)ccnc2c1` (stereo not drawn) [Compound 23], the mortality at 250 ppm in assay [4] and in assay [5] was 100% each time. Further, the disease suppression entry in the assay with Botrytis cinerea is reported as “suppress disease completely”.
For `c1ccc([C@H]2CC[C@@H](Nc3ccnc4ccccc34)CC2)cc1` [Compound 25, 4-(4-Phenylcyclohexylamino)quinoline], the disease suppression entry in the assay on Plasmopara viticola and in the assay on Botrytis cinerea was “suppress disease completely” each time.
For `CC(C)(C)CC(C)(C)[C@H]1CC[C@@H](Oc2ccnc3cccnc23)CC1` [Compound 133], the mortality at 250 ppm in assay [4] is 100%.
`CCC(C)(C)[C@H]1CC[C@@H](Nc2ncnc3cccnc23)CC1` [Compound 232] came in with a mortality at 250 ppm in [3] of 100%. Further, the disease suppression entry in the assay with Plasmopara viticola is on record as “suppress disease completely”.
`Cc1ccc2c(NC3CCC(C(C)(C)CC(C)(C)C)CC3)ccnc2n1` (stereo not drawn) [Compound 215] yielded a mortality at 250 ppm in assay [5] of 100%.

The values above are taken from patent US5821244A, “Condensed nitrogen heterocycles and their use as pesticides, fungicides and antimycotics” (Hoechst Schering AgrEvo GmbH, priority 1993, dated 1998).
